Publication PMC7686308, “Overcoming the blood–brain barrier by Annexin A1-binding peptide to target brain tumours” (British Journal of Cancer, 2020)
Peptide text beside a SMILES is read from it.

Tests used:
[1] = tested on: human MC16 peptide; experiment: Plate binding assay to human MC16 peptide; conditions: biotinylated IF7C(RR) 1 μg/mL, MC16 10 nmoles coated, peroxidase-streptavidin
Experimental: (§1) We next assessed IF7 binding to recombinant human ANXA1 protein and human MC16 peptide in three ways (Fig. 2a-c). First, we added biotinylated IF7 in solution to plastic wells coated with monomeric MC16 and determined IF7 binding by peroxidase-conjugated streptavidin and a peroxidase colour reaction (Fig. 2a). […] Thus, we modelled the ANXA1 dimer using the Zdock module for protein–protein docking.[26] The IF7 docking pose was calculated to be −3.7 kcal/mol (Fig. 2d).
(§2) Fig. 2 Binding of IF7 to the ANXA1 N-terminal domain and full-length ANXA1 protein in vitro. a Plate binding assay of N-terminal biotinylated IF7C(RR) to human MC16 peptide and its mutants. Each synthetic MC16 and its mutant peptide (10 nmoles) was bound to maleimide-activated plastic well through its C-terminal cysteine residue. Biotinylated IF7C(RR) peptide (1 μg/mL) was added to each well and binding of biotinylated peptide was detected by peroxidase-conjugated streptavidin and peroxidase colour reaction. b FCS analysis of IF7 with ANXA1 (left) and with MC16 peptides (right) in solution. […] The proposed model was further validated by dG scoring, which was calculated using MOE software with GBVI/WSA, a program allows us to compare calculated and observed energetics.[59] The IF7 docking pose was calculated to be −3.7 kcal/mol.

[2] = tested on: MC16 mutant peptides F7A, K9A and E15A; experiment: Plate binding assay to MC16 mutant peptides; set-up: species or system human; conditions: biotinylated IF7C(RR) 1 μg/mL, mutant peptide 10 nmoles coated
Experimental: as §1, §2

[3] = tested on: mouse MC16; experiment: Plate binding assay to mouse MC16 peptide
Experimental: as §2
Fig. 3 Targeting of IF7 to the brain tumour vasculature in vivo in the mouse. a Binding of IF7 and control peptides to mouse and human MC16 peptides by plate assay. Biotinylated IF7C(RR) and control C(RR) was assessed for their binding to MC16 in a similar manner as in Fig. 2a. b Targeting of fluorescent-labelled IF7 peptide to the brain tumour vasculature in the mouse. […] Blue fluorescence (left panels) represents nuclear Hoechst 33342 and green fluorescence (right) represents Alexa 488. […]

[4] = tested on: ANXA1 exhibiting a free N-terminus; experiment: FCS binding to ANXA1 with free N-terminus; set-up: species or system human; conditions: IF7C-A546, 37 °C, 1 h, increase in diffusion time
Experimental: (§3) A mixture of IF7C-A546 with Anxa1 or MC16 (50 μl) was loaded into each well of a 96-well plate and incubated at 37 °C for 1 h. FCS was performed with the MF20 analytical system (Olympus) using a 543 nm He–Ne laser for illumination. Each sample was measured five times with a data acquisition time of 10 sec per measurement. IF7C(RR) binding was defined as an increase in translational diffusion time relative to a control.
as §2

[5] = tested on: N-terminally His-tagged ANXA1; experiment: FCS binding to N-terminally His-tagged ANXA1; set-up: species or system human; conditions: IF7C-A546, 37 °C, 1 h, diffusion time
Experimental: as §3, §2

[6] = tested on: tetrameric MC16; experiment: FCS binding to tetrameric MC16; set-up: species or system human; conditions: IF7C-A546, 37 °C, 1 h, diffusion time
[7] = tested on: monomeric MC16; experiment: FCS binding to monomeric MC16; set-up: species or system human; conditions: IF7C-A546, 37 °C, 1 h, diffusion time
Experimental: as §3, §2

[8] = Histology of tumours from mice injected with IF7; format: in vivo, mouse; conditions: histological analysis, data not shown
[9] = tested on: ANXA1 with a free N-terminus; conditions: plate binding analysis; cited from earlier work
Text: (§4) We next assessed IF7 binding to recombinant human ANXA1 protein and human MC16 peptide in three ways (Fig. 2a-c). First, we added biotinylated IF7 in solution to plastic wells coated with monomeric MC16 and determined IF7 binding by peroxidase-conjugated streptavidin and a peroxidase colour reaction (Fig. 2a). […] Second, we assessed binding of IF7 and MC16 in solution by fluorescence correlation spectrometry (FCS) ( ...

[10] = tested on: N-terminally His-Tagged ANXA1; conditions: plate binding analysis; cited from earlier work
Text: as §4

[11] = tested on: subcutaneous colon tumours; conditions: mouse, in vivo; cited from earlier work

With `CC[C@H](C)[C@H](N)C(=O)N[C@@H](Cc1ccccc1)C(=O)N[C@@H](CC(C)C)C(=O)N[C@@H](CC(C)C)C(=O)N[C@@H](Cc1c[nH]c2ccccc12)C(=O)N[C@@H](CCC(N)=O)C(=O)N[C@@H](CCCNC(=N)N)C(=O)N[C@@H](CS)C(=O)N[C@@H](CCCNC(=N)N)C(=O)N[C@@H](CCCNC(=N)N)C(=O)O` [IF7] (H-IFLLWQRCRR-OH; N-terminus and C-terminus assumed) as the molecule, how does the “IF7 binding to MC16” value [1] read?
Its value is “IF7 bound to WT MC16”.

And the “IF7 binding to MC16 mutants” value [2]?
The value was “binding was significantly reduced”.

And the “binding to human and mouse MC16 compared” value ([3]; Fig. 3a, human versus mouse MC16)?
Its value is “IF7 bound both human and mouse MC16 peptides equally”.

What about the “binding to mouse MC16” value ([3]; biotinylated IF7C(RR), in a similar manner as in Fig. 2a) of the same molecule?
Its value is “IF7 binding to N-terminal domain of mouse MC16 was confirmed”.

And the “binding in solution to untagged ANXA1” value [4]?
The value was “IF7 bound to ANXA1 exhibiting a free N-terminus”.

What about the “binding in solution to N-terminally His-tagged ANXA1” value [5] of the same molecule?
Its value is “not to N-terminally His-tagged ANXA1”.

What about the “binding in solution to tetrameric MC16” value [6] of the same molecule?
Its value is “IF7 bound to tetrameric rather than monomeric MC16”.

What about the “binding in solution to MC16 monomer” value [7] of the same molecule?
Its value is “the diffusion time of IF7 with MC16 monomer did not increase”.

And the “signs of inflammation in tumours” value [8]?
The value was “did not reveal signs of inflammation”.

What about the “plate binding to ANXA1 with free N-terminus” value [9] of the same molecule?
The value was “IF7 bound ANXA1 with a free N-terminus”.

And the “plate binding to N-terminally His-Tagged ANXA1” value [10]?
Its value is “not N-terminally His-Tagged ANXA1”.

And the “fluorescent signals 15 min after i.v. injection” value [11]?
The value was “fluorescent signals are seen in vesicles at mostly the basal side of vasculature”.

And the “fluorescent signals 40 min after i.v. injection” value [11]?
The value was “fluorescence is seen in the stroma and in tumour cells”.
